Experimental data as given in PubChem BioAssay AID2060338 (Molecular Pharmacology Branch, DTP, NCI, 2025).
Several values for one entry are separate records, joined by “and”; a condition that tells them apart may be missing. Equal entries are not always repeated.

Test system: 556581-035-R-J1-PDC spheroids with HUVEC/MSC, viability
Experiment: Anticancer human tumor 556581-035-R-J1-PDC patient-derived ovarian carcinoma cell line growth inhibition [IpAb]
Conditions: for viability, T/C: stronger effect = lower value
Outline: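 Combinations with ipatasertib or abemaciclib were tested on tumour spheroids holding HUVEC (25%) and MSC (15%) alongside 60% malignant cells. Top concentration was at or near clinical Cmax (10 microM if undefined), descending in half-log steps.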

[1] = curve of first compound, second compound 0.1 µM
[2] = curve of first compound, second compound 0.316 µM
[3] = curve of first compound, second compound 1 µM
[4] = curve of first compound, second compound 3.16 µM
[5] = curve of first compound, second compound 10 µM
[6] = second compound 0.1 µM, first compound 0.0316 µM
[7] = second compound 0.1 µM, first compound 0.1 µM
[8] = second compound 0.1 µM, first compound 0.316 µM
[9] = second compound 0.1 µM, first compound 1 µM
[10] = second compound 0.1 µM, first compound 3.16 µM
[11] = second compound 0.1 µM, first compound 10 µM
[12] = second compound 0.316 µM, first compound 0.0316 µM
[13] = second compound 0.316 µM, first compound 0.1 µM
[14] = second compound 0.316 µM, first compound 0.316 µM
[15] = second compound 0.316 µM, first compound 1 µM
[16] = second compound 0.316 µM, first compound 3.16 µM
[17] = second compound 0.316 µM, first compound 10 µM
[18] = second compound 1 µM, first compound 0.0316 µM
[19] = second compound 1 µM, first compound 0.1 µM
[20] = second compound 1 µM, first compound 0.316 µM
[21] = second compound 1 µM, first compound 1 µM
[22] = second compound 1 µM, first compound 3.16 µM
[23] = second compound 1 µM, first compound 10 µM
[24] = second compound 3.16 µM, first compound 0.0316 µM
[25] = second compound 3.16 µM, first compound 0.1 µM
[26] = second compound 3.16 µM, first compound 0.316 µM
[27] = second compound 3.16 µM, first compound 1 µM
[28] = second compound 3.16 µM, first compound 3.16 µM
[29] = second compound 3.16 µM, first compound 10 µM
[30] = second compound 10 µM, first compound 0.0316 µM
[31] = second compound 10 µM, first compound 0.1 µM
[32] = second compound 10 µM, first compound 0.316 µM
[33] = second compound 10 µM, first compound 1 µM
[34] = second compound 10 µM, first compound 3.16 µM
[35] = second compound 10 µM, first compound 10 µM
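Further: spheroids exposed to compounds for 7 days before readout.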

In the case of `Cn1nccc1Nc1nccc(-c2ccn(C(CO)c3ccc(Cl)c(F)c3)c(=O)c2)n1` (stereo unspecified), the viability, T/C (compound 0.0316 µM) is reported as 114% and 133%, the viability, T/C (compound 0.1 µM) is reported as 117% and 135% and the viability, T/C (compound 0.316 µM) is reported as 103% and 124%. The viability, T/C (compound 1 µM) was 86.2% and 104%, the viability, T/C (compound 3.16 µM) was 61.3% and 88.7% and the viability, T/C (compound 10 µM) was 17.8% and 38.4%. The IC50 (curve of compound) was 4160 nM and 7690 nM.

For `Cn1ncc(Cl)c1-c1cc(C(=O)NC(CN)Cc2cccc(F)c2)sc1Cl` (stereo unspecified), the viability, T/C (compound 0.0316 µM) was 90.6% and 96.9%, the viability, T/C (compound 0.1 µM) was 81% and 74.5% and the viability, T/C (compound 0.316 µM) was 71.5% and 69.2%. The viability, T/C (compound 1 µM) was 60.2% and 70.8%, the viability, T/C (compound 3.16 µM) was 52.5% and 47.6% and the viability, T/C (compound 10 µM) was 0.3% and 0.29%. The IC50 (curve of compound) was 2320 nM and 2410 nM.

`COc1c(OCCCN2CCOCC2)ccc2c3n(c(=NC(=O)c4cnc(N)nc4)nc12)CCN3` was tested, and the viability, T/C (compound 0.00316 µM) was 72.5% and 103%, the viability, T/C (compound 0.01 µM) was 52.7% and 57.6% and the viability, T/C (compound 0.0316 µM) was 41.7% and 46.2%. For the same molecule, the viability, T/C (compound 0.1 µM) was 32.3% and 38.2%, the viability, T/C (compound 0.316 µM) was 11% and 11.5% and the viability, T/C (compound 1 µM) was 2.47% and 3.86%. The IC50 (curve of compound) was 16.3 nM and 24.4 nM.

`Cn1nccc1Nc1nccc(-c2ccn(C(CO)c3ccc(Cl)c(F)c3)c(=O)c2)n1` (stereo unspecified) + CC(C)NCC(C(=O)N1CCN(c2ncnc3c2C(C)CC3O)CC1)c1ccc(Cl)cc1 was tested, and the IC50 [1] was 2480 nM, the IC50 [2] was 2330 nM and the IC50 [3] was 165 nM. It also gave an IC50 [4] of under 31.6 nM, an IC50 [5] of under 31.6 nM and a viability, T/C [6] of 94.8%. For the same molecule, the viability, T/C [7] was 75.4%, the viability, T/C [8] was 71.8% and the viability, T/C [9] was 62.4%. For the same molecule, the viability, T/C [10] was 50.2%, the viability, T/C [11] was 31.3% and the viability, T/C [12] was 61.6%. It also gave a viability, T/C [13] of 79.6%, a viability, T/C [14] of 60.1% and a viability, T/C [15] of 51.5%. It also gave a viability, T/C [16] of 52.2%, a viability, T/C [17] of 13.2% and a viability, T/C [18] of 55.8%. It also gave a viability, T/C [19] of 61.6%, a viability, T/C [20] of 41% and a viability, T/C [21] of 29.3%. The viability, T/C [22] was 24.8%, the viability, T/C [23] was 9.12% and the viability, T/C [24] was 48.4%. It also gave a viability, T/C [25] of 36.4%, a viability, T/C [26] of 38.1% and a viability, T/C [27] of 22.7%. It also gave a viability, T/C [28] of 11.6%, a viability, T/C [29] of 5.62% and a viability, T/C [30] of 35.7%. It also gave a viability, T/C [31] of 31.3%, a viability, T/C [32] of 27.8% and a viability, T/C [33] of 17.6%. For the same molecule, the viability, T/C [34] was 12.3% and the viability, T/C [35] was 1.97%.

For `CC1(C)CCC(CN2CCN(c3ccc(C(=O)NS(=O)(=O)c4ccc(NCC5CCOCC5)c([N+](=O)[O-])c4)c(Oc4cnc5[nH]ccc5c4)c3)CC2)=C(c2ccc(Cl)cc2)C1` + CC(C)NCC(C(=O)N1CCN(c2ncnc3c2C(C)CC3O)CC1)c1ccc(Cl)cc1, the IC50 [1] was 6750 nM, the IC50 [2] was 5540 nM and the IC50 [3] was 3810 nM. For the same molecule, the IC50 [4] was 3550 nM, the IC50 [5] was under 31.6 nM and the viability, T/C [6] was 101%. The viability, T/C [7] was 90.5%, the viability, T/C [8] was 87.8% and the viability, T/C [9] was 104%. It also gave a viability, T/C [10] of 94.1%, a viability, T/C [11] of 27.1% and a viability, T/C [12] of 87.4%. The viability, T/C [13] was 76.7%, the viability, T/C [14] was 87.3% and the viability, T/C [15] was 76.1%. It also gave a viability, T/C [16] of 75%, a viability, T/C [17] of 24% and a viability, T/C [18] of 71.6%. It also gave a viability, T/C [19] of 76%, a viability, T/C [20] of 66.2% and a viability, T/C [21] of 64.8%. The viability, T/C [22] was 58.1%, the viability, T/C [23] was 18.2% and the viability, T/C [24] was 57.2%. It also gave a viability, T/C [25] of 62.3%, a viability, T/C [26] of 58.4% and a viability, T/C [27] of 51.7%. The viability, T/C [28] was 54.4%, the viability, T/C [29] was 17.7% and the viability, T/C [30] was 47.7%. It also gave a viability, T/C [31] of 44.6%, a viability, T/C [32] of 44.5% and a viability, T/C [33] of 48.1%. The viability, T/C [34] was 42.7% and the viability, T/C [35] was 4.35%.
